Assay results: patent US20050059726A1, “Pyrrolidine-2-ones as factor xa inhibitors” (priority 2001, published 2005)
Where a name gives a salt, the structure may show the parent alone.

Assays:
[1] = target: T1, human Factor Xa (Homo sapiens, UniProt P00742); test: In vitro assay for inhibition of Factor Xa (1), chromogenic assay; type: biochemical; details: substrate N-α-benzyloxycarbonyl-D-Arg-Gly-Arg-p-nitroanilide 200 μM, Ki calculated from IC50
Protocol: • 1. Klimkowski, Valentine Joseph; Kyle, Jeffrey Alan; Masters, John Joseph; Wiley, Michael Robert. PCT Int. Appl. (2000), WO 0039092. In Vitro Assay for Inhibition of Factor Xa (1)
Compounds were diluted from a 10 mM stock solution in dimethylsulfoxide at appropriate concentrations. Assay was performed at room temperature using buffer consisting of: 50 mM Tris-HCl, 150 mM NaCl, 5 mM CaCl2, pH 7.4. containing human Factor Xa (final conc. of 0.0015 U,ml^−1). Compound and enzyme were preincubated for 15 min prior to addition of the substrate (final conc. of 200 μM). The reaction was stopped after 30 min with the addition of soybean trypsin inhibitor or H-D-PHE-PRO-ARG-Chloromethylketone. BioTek EL340 or Tecan Spectrafluoro Plus plate readers were used to monitor the absorbance at 405 nm. To obtain IC50 values the data were analysed using ActivityBase® and XLfit®.
Calculation of Ki values:
Ki=IC50/(1+[Substrate]/Km)
The Ki value for the above assay can be obtained by dividing the IC50 value by 1.6.

[2] = target: T1, human Factor Xa; test: In vitro assay for inhibition of Factor Xa (2), fluorogenic assay; type: biochemical; details: substrate Rhodamine 110, bis-(CBZ-glycylglycyl-L-arginine amide 10 μM), Ki calculated from IC50
Method in brief: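 Enzyme (final 0.0003 U/mL) preincubated 15 min with compound at room temperature in 50 mM Tris-HCl, 150 mM NaCl, 5 mM CaCl2, pH 7.4, then rhodamine 110 bis-(CBZ-Gly-Gly-Arg amide) substrate added (final 10 μM).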

T1 sequence (P00742 235-488 limits assumed): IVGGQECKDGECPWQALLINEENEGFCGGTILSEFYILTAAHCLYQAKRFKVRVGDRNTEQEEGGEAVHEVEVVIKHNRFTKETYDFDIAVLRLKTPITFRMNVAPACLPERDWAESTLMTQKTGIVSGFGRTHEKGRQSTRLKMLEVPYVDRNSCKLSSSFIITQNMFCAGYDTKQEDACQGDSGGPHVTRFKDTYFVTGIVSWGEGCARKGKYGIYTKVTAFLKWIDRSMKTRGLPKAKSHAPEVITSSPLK
T1 sequence (P00742 41-179 partner limits assumed): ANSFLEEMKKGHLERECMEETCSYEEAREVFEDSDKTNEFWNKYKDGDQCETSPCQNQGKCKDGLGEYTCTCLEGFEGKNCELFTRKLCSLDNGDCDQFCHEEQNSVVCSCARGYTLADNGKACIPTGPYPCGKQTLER

| Ki [1] [nM] | Ki [2] [nM] | Structure (SMILES) |
| --- | --- | --- |
| < 1000 |  | Cc1ccc(-c2ccc(N3CC[C@H](NS(=O)(=O)c4ccc5cc(Cl)ccc5c4)C3=O)c(F)c2)o1 [Example 73, 6-Chloro-N-{(3S)-1-[2-fluoro-4-(5-methyl-2-furyl)phenyl]-2-oxopyrrolidin-3-yl}naphthalene-2-sulfonamide] |
| < 10 |  | CNS(=O)(=O)c1ccccc1-c1ccc(N2CC[C@H](NS(=O)(=O)/C=C/c3ccc(Cl)s3)C2=O)c(F)c1 [Example 19, 4′-[(3S)-3-({[(E)-2-(5-Chlorothien-2-yl)ethenyl]sulfonyl}amino)-2-oxopyrrolidin-1-yl]-3′-fluoro-N-methyl-1,1′-biphenyl-2-sulfonamide] |
| < 200 |  | O=C1[C@@H](NS(=O)(=O)c2ccc3cc(Cl)ccc3c2)CCN1c1ccc(I)cc1F [Example 89, 6-Chloro-N-[(3S)-1-(2-fluoro-4-iodophenyl)-2-oxopyrrolidin-3-yl]naphthalene-2-sulfonamide] |
| < 20 |  | CS(=O)(=O)Nc1ccccc1-c1ccc(N2CC[C@H](NS(=O)(=O)/C=C/c3ccc(Cl)s3)C2=O)nc1 [Example 21, (E)-2-(5-Chlorothien-2-yl)-N-[(3S)-1-(5-{2-[(methylsulfonyl)amino]phenyl}pyridin-2-yl)-2-oxopyrrolidin-3-yl]ethenesulfonamide] |
| < 1000 |  | CS(=O)(=O)c1ccccc1-c1ccc(N2CC[C@H](NS(=O)(=O)c3cc4cc(Cl)ccc4o3)C2=O)nc1 [Example 23, 5-Chloro-N-((3S)-1-{5-[2-(methylsulfonyl)phenyl]pyridin-2-yl}-2-oxopyrrolidin-3-yl)-1-benzofuran-2-sulfonamide] |
| < 10 |  | Cn1cncc1-c1ccc(N2CC[C@H](NS(=O)(=O)c3ccc4cc(Cl)ccc4c3)C2=O)c(F)c1 [Example 85, 6-Chloro-N-{(3S)-1-[2-fluoro-4-(1-methyl-1H-imidazol-5-yl)phenyl]-2-oxopyrrolidin-3-yl}naphthalene-2-sulfonamide] |
|  | < 10 | CS(=O)(=O)c1ccccc1-c1ccc(N2CC[C@H](N(CC(N)=O)S(=O)(=O)/C=C/c3ccc(Cl)s3)C2=O)nc1 [Example 43, 2-[{[(E)-2-(5-Chlorothien-2-yl)ethenyl]sulfonyl}((3S)-1-{5-[2-(methylsulfonyl)phenyl]pyridin-2-yl}-2-oxopyrrolidin-3-yl)amino]acetamide] |
|  | < 10 | CS(=O)(=O)c1ccccc1-c1ccc(N2CC[C@H](N(CCN3CCOCC3)S(=O)(=O)/C=C/c3ccc(Cl)s3)C2=O)nc1 [Example 42, (E)-2-(5-Chlorothien-2-yl)-N-((3S)-1-{5-[2-(methylsulfonyl)Phenyl]pyridin-2-yl}-2-oxopyrrolidin-3-yl)-N-(2-morpholin-4-ylethyl)ethenesulfonamide Formate Salt (1:1)] |
|  | < 10 | O=C1[C@@H](NS(=O)(=O)c2ccc3cc(Cl)ccc3c2)CCN1c1ccc(-c2ccncc2)cc1F [Example 55, 6-Chloro-N-[(3S)-1-(2-fluoro-4-pyridin-4-ylphenyl)-2-oxopyrrolidin-3-yl]naphthalene-2-sulfonamide] |
|  | < 200 | CC(=O)c1ccc(N2CC[C@H](NS(=O)(=O)/C=C/c3ccc(Cl)s3)C2=O)cc1 [Example 138, (E)-N-[(3S)-1-(4-Acetylphenyl)-2-oxopyrrolidin-3-yl]-2-(5-chlorothien-2-yl)ethenesulfonamide] |
|  | < 1000 | CS(=O)(=O)c1ccccc1-c1ccc(N2CC[C@H](NS(=O)(=O)c3ccc(C#N)cc3)C2=O)c(F)c1 [Example 34] |
|  | < 10 | C/C(=C\S(=O)(=O)N[C@H]1CCN(c2ccc(-n3ccnc3C[N+](C)(C)CC(N)=O)cc2F)C1=O)c1ccc(Cl)s1 [Example 142, 2-Amino-N-[(1-{4-[(3S)-3-({[(1E)-2-(5-chlorothien-2-yl)prop-1-enyl]sulfonyl}amino)-2-oxopyrrolidin-1-yl]-3-fluorophenyl}-1H-imidazol-2-yl)methyl]-N,N-dimethyl-2-oxoethanaminium formate] |
|  | < 10 | CS(=O)(=O)c1ccccc1-c1ccc(N2CC[C@H](NS(=O)(=O)c3cc4nc(Cl)ccc4s3)C2=O)c(F)c1 [Example 38, 5-Chloro-N-{(3S)-1-[3-fluoro-2′-(methylsulfonyl)-1,1′-biphenyl-4-yl]-2-oxopyrrolidin-3-yl}thieno[3,2-b]pyridine-2-sulfonamide] |
|  | < 200 | N#Cc1ccc(N2CC[C@H](NS(=O)(=O)/C=C/c3ccc(Cl)s3)C2=O)c(F)c1 [Example 98, (E)-2-(5-Chlorothien-2-yl)-N-[(3S)-1-(4-cyano-2-fluorophenyl)-2-oxopyrrolidin-3-yl]ethenesulfonamide] |
|  | < 10 | CS(=O)(=O)c1ccccc1-c1ccc(N2CC[C@H](N(CC(=O)O)S(=O)(=O)/C=C/c3ccc(Cl)s3)C2=O)c(F)c1 [Example 49] |
|  | < 20 | O=C1[C@@H](NS(=O)(=O)/C=C/c2ccc(Cl)s2)CCN1c1ccc([N+](=O)[O-])cc1F [Example 95, (E)-2-(5-Chloro-2-thienyl)-N-[(3S)-1-(2-fluoro-4-nitrophenyl)-2-oxopyrrolidinyl]ethenesulfonamide] |
|  | < 10 | O=C1[C@@H](NS(=O)(=O)/C=C/c2ccc(Cl)s2)CCN1c1ccc(-c2ccncc2Cl)cc1F [Example 80, (E)-N-{(3S)-1-[4-(3-Chloropyridin-4-yl)-2-fluorophenyl]-2-oxopyrrolidin-3-yl}-2-(5-chlorothien-2-yl)ethenesulfonamide] |
|  | < 200 | N#Cc1ccc(N2CC[C@H](NS(=O)(=O)CCc3ccc(Cl)s3)C2=O)c(F)c1 [Example 99, 2-(5-Chlorothien-2-yl)-N-[(3S)-1-(4-cyano-2-fluorophenyl)-2-oxopyrrolidin-3-yl]ethanesulfonamide] |
|  | < 10 | CC(C)(C)OC(=O)CN([C@H]1CCN(c2ccc(-c3ccccc3S(C)(=O)=O)cc2F)C1=O)S(=O)(=O)/C=C/c1ccc(Cl)s1 [Example 47, tert-Butyl ({[(E)-2-(5-chlorothien-2-yl)ethenyl]sulfonyl}{(3S)-1-[3-fluoro-2′-(methylsulfonyl)-1,1′-biphenyl-4-yl]-2-oxopyrrolidin-3-yl}amino)acetate] |
|  | < 200 | O=C1[C@@H](NS(=O)(=O)c2ccc3cc(Cl)ccc3c2)CCN1c1ccc(-c2cncnc2)cc1F [Example 63, 6-Chloro-N-[(3S)-1-(2-fluoro-4-pyrimidin-5-ylphenyl)-2-oxopyrrolidin-3-yl]naphthalene-2-sulfonamide] |
|  | < 10 | CS(=O)(=O)c1ccccc1-c1ccc(N2CC[C@H](N(CCN3CCOCC3)S(=O)(=O)/C=C/c3ccc(Cl)s3)C2=O)c(F)c1 [Example 45, (E)-2-(5-Chlorothien-2-yl)-N-{(3S)-1-[3-fluoro-2′-(methylsulfonyl)-1,1′-biphenyl-4-yl]-2-oxopyrrolidin-3-yl}-N-(2-morpholin-4-ylethyl)ethenesulfonamide] |
|  | < 10 | N#Cc1ncccc1-c1ccc(N2CC[C@H](NS(=O)(=O)c3ccc4cc(Cl)ccc4c3)C2=O)c(F)c1 [Example 79, 6-Chloro-N-{(3S)-1-[4-(2-cyanopyridin-3-yl)-2-fluorophenyl-]-2-oxopyrrolidin-3-yl}naphthalene-2-sulfonamide] |
|  | < 10 | C[N+](C)(CC(N)=O)Cc1nccn1-c1ccc(N2CC[C@H](NS(=O)(=O)c3cc4ccc(Cl)cc4s3)C2=O)c(F)c1 [Example 144, 2-Amino-N-({1-[4-((3S)-3-{[(6-chloro-1-benzothien-2-yl)sulfonyl]amino}-2-oxopyrrolidin-1-yl)-3-fluorophenyl]-1 H-imidazol-2-yl}methyl)-N,N-dimethyl-2-oxoethanaminium Formate] |
|  | < 200 | CSc1ccccc1-c1cnc(N2CC[C@H](NS(=O)(=O)c3ccc4cc(Cl)ccc4c3)C2=O)s1 [Example 51, 6-Chloro-naphthalene-2-sulphonic Acid [(S)-1-[5-(2-methylsulphanylphenyl)-thiazol-2-yl]-2-oxo:pyrrolidin-3-yl]amide] |
|  | < 10 | CN(C)C(=O)c1ccc(N2CC[C@H](N(CC(N)=O)S(=O)(=O)/C=C/c3ccc(Cl)s3)C2=O)c(F)c1 [Example 134, 4-[(3S)-3-((2-Amino-2-oxoethyl){[(E)-2-(5-chlorothien-2-yl)ethenyl]sulfonyl}amino)-2-oxopyrrolidin-1-yl]-3-fluoro-N,N-dimethylbenzamide] |
|  | < 10 | CS(=O)(=O)c1ccccc1-c1ccc(N2CC[C@H](NS(=O)(=O)c3cc4ccc(Cl)cc4s3)C2=O)c(F)c1 [Example 11, 6-Chloro-N-{(3S)-1-[3-fluoro-2′-(methylsulfonyl)-1,1′-biphenyl-4-yl]-2-oxopyrrolidin-3-yl}-1-benzothiophene-2-sulfonamide] |
|  | < 200 | O=C1[C@@H](NS(=O)(=O)c2ccc3cc(Cl)ccc3c2)CCN1c1ccc(-c2ccccc2)cc1F [Example 74, 6-Chloro-N-[(3S)-1-(3-fluoro-1,1′-biphenyl-4-yl)-2-oxopyrrolidin-3-yl]naphthalene-2-sulfonamide] |
|  | < 200 | O=C1[C@@H](NS(=O)(=O)c2ccc3cc(Cl)ccc3c2)CCN1c1ccc(-c2cncc(Br)c2)cc1F [Example 61, N-{(3S)-1-[4-(5-Bromopyridin-3-yl)-2-fluorophenyl]-2-oxopyrrolidin-3-yl}-6-chloronaphthalene-2-sulfonamide] |
